The source made the active and inactive calls. No cut-off for these calls is given here.
Key:
[1] = Hepatotoxicity in DIO C57BL/6 mouse assessed as alanine aminotransferase level in serum at 25 nmol/kg, sc administered every 2 days for 3 weeks; type: toxicity, organism-based; conditions: in vivo, 504 h, time 21 day
[2] = Renal toxicity in DIO C57BL/6 mouse assessed as creatinine level in serum at 100 nmol/kg, sc administered once daily for 7 days; type: organism-based; conditions: in vivo, 168 h, time 7 day
[3] = Renal toxicity in DIO C57BL/6 mouse assessed as blood urea nitrogen level at 25 nmol/kg, sc administered every 2 days for 3 weeks; type: organism-based; conditions: in vivo, 504 h, time 21 day
[4] = Renal toxicity in db/db mouse assessed as creatinine level in serum at 25 nmol/kg, sc administered every 2 days for 12 weeks; type: organism-based; conditions: in vivo, 2016 h
Mus musculus [5] = assay: Anti-diabesity activity against db/db mouse assessed as improvement in glucose tolerance at 25 nmol/kg, sc administered every 2 days for 3 weeks by OGTT; type: functional, organism-based; conditions: time 21.0 day
[6] = Renal toxicity in DIO C57BL/6 mouse assessed as creatinine level in serum at 25 nmol/kg, sc administered every 2 days for 3 weeks; type: organism-based; conditions: in vivo, 504 h, time 21 day
Mus musculus [7] = assay: Anti-diabesity activity against db/db mouse assessed as reduction in fasting blood glucose level at 25 nmol/kg, sc administered every 2 days for 6 weeks followed by saline treatment for 6 weeks and measured during second 6 weeks; type: functional, organism-based
Mus musculus [8] = assay: Insulinotropic activity in db/db mouse assessed as elevation of plasma insulin level at 25 nmol/kg, ip administered 30 min before oral glucose administration and measured upto 60 mins by ELISA; type: functional, organism-based; conditions: time <= 90.0 min
Mus musculus [9] = assay: Anti-diabesity activity against db/db mouse assessed as reduction in fasting blood glucose level at 25 nmol/kg, sc administered every 2 days for 12 weeks; type: functional, organism-based
[10] = Renal toxicity in db/db mouse assessed as blood urea nitrogen level in serum at 25 nmol/kg, sc administered every 2 days for 12 weeks; type: organism-based; conditions: in vivo, 2016 h
Mus musculus [11] = assay: Anorectic activity in ICR mouse assessed as decrease in food intake at 25 nmol/kg, ip and measured after 9 hrs; type: functional, organism-based
[12] = Pancreatic insult activity in DIO C57BL/6 mouse assessed as increase in lipase level in plasma at 100 nmol/kg, sc administered once daily for 7 days; type: toxicity, organism-based; conditions: in vivo, 168 h, time 7 day
Mus musculus [13] = assay: Anti-diabesity activity against db/db mouse assessed as reduction in body weight at 25 nmol/kg, sc administered every 2 days for 3 weeks; type: functional, organism-based; conditions: time 21.0 day
BRIN-BD11 = assay: Insulinotropic activity in rat BRIN-BD11 cells assessed as increase in insulin secretion incubated for 20 mins by radioimmunoassay; type: functional, cell-based; conditions: DDE = dose-dependent effect
Mus musculus [14] = assay: Anti-diabesity activity against db/db mouse assessed as improvement in glucose tolerance level at 25 nmol/kg, sc administered every 2 days for 6 weeks followed by saline treatment for 6 weeks and measured during first 6 weeks by OGTT; type: functional, organism-based
Mus musculus [15] = assay: Anti-diabesity activity in DIO C57BL/6 mouse assessed as reduction in body weight at 10 nmol/kg, sc administered every 2 days for 10 days; type: functional; conditions: C57BL/6, 240 h, time 10 day
[16] = Renal toxicity in db/db mouse assessed as creatinine level in serum at 100 nmol/kg, sc administered once daily for 7 days; type: organism-based; conditions: in vivo, 168 h, time 7 day
Mus musculus [17] = assay: Anti-diabesity activity against db/db mouse assessed as increase in islet number at 25 nmol/kg, sc administered every 2 days for 3 weeks by H and E staining based analysis; type: functional, organism-based; conditions: time 21.0 day
Mus musculus [18] = assay: Anti-diabesity activity in db/db mouse assessed as reduction in body weight at 100 nmol/kg, sc administered once daily for 7 days; type: functional, organism-based; conditions: time 7.0 day
[19] = Half life in Sprague-Dawley rat at 25 nmol/kg, iv by LC-MS/MS analysis; type: ADME, organism-based; conditions: in vivo
Mus musculus [20] = assay: Anti-diabesity activity against DIO C57BL/6 mouse assessed as reduction in leptin level in plasma at 25 nmol/kg, sc administered every 2 days for 3 weeks by ELISA; type: functional, organism-based; conditions: time 21.0 day
Mus musculus [21] = assay: Anti-diabesity activity against DIO C57BL/6 mouse assessed as reduction in fasted blood glucose level at 25 nmol/kg, sc administered every 2 days for 3 weeks; type: functional, organism-based; conditions: time 21.0 day
Mus musculus [22] = assay: Anti-diabesity activity in db/db mouse assessed as decrease in fasted blood glucose level at 100 nmol/kg, sc administered once daily for 7 days; type: functional, organism-based; conditions: time 7.0 day
[23] = Hepatotoxicity in db/db mouse assessed as alanine aminotransferase level in plasma at 100 nmol/kg, sc administered once daily for 7 days; type: toxicity, organism-based; conditions: in vivo, 168 h, time 7 day
Mus musculus [24] = assay: Anorectic activity in ICR mouse assessed as decrease in food intake at 25 nmol/kg, ip and measured after 24 hrs; type: functional, organism-based
Mus musculus [25] = assay: Anti-diabesity activity against db/db mouse assessed as reduction in HbA1c level at 25 nmol/kg, sc administered every 2 days for 6 weeks followed by saline treatment for 6 weeks and measured during second 6 weeks; type: functional, organism-based
Mus musculus [26] = assay: Anti-diabesity activity against db/db mouse assessed as reduction in HbA1c level at 25 nmol/kg, sc administered every 2 days and measured on day 43; type: functional, organism-based; conditions: time 43.0 day
Mus musculus [27] = assay: Anti-diabesity activity against db/db mouse assessed as improvement in glucose tolerance level at 25 nmol/kg, sc administered every 2 days for 6 weeks followed by saline treatment for 6 weeks and measured during second 6 weeks by OGTT; type: functional, organism-based
Mus musculus [28] = assay: Anti-diabesity activity against DIO C57BL/6 mouse assessed as reduction in body weight at 25 nmol/kg, sc administered every 2 days for 3 weeks; type: functional; conditions: C57BL/6, 504 h, time 21 day
Mus musculus [29] = assay: Anti-diabesity activity in db/db mouse assessed as decrease in cumulative food intake at 100 nmol/kg, sc administered once daily for 7 days; type: functional, organism-based; conditions: time 7.0 day
Mus musculus [30] = assay: Anti-diabesity activity against db/db mouse assessed as reduction in cumulative food intake at 25 nmol/kg, sc administered every 2 days for 3 weeks; type: functional, organism-based; conditions: time 21.0 day
Mus musculus [31] = assay: Anti-diabesity activity against db/db mouse assessed as improvement in glucose tolerance at 25 nmol/kg, sc administered every 2 days for 12 weeks by OGTT; type: functional, organism-based
[32] = Hepatotoxicity in db/db mouse assessed as alanine aminotransferase level in plasma at 25 nmol/kg, sc administered every 2 days for 12 weeks; type: toxicity, organism-based; conditions: in vivo, 2016 h
Mus musculus [33] = assay: Hypoglycemic activity in sc dosed non-fasted db/db mouse assessed as reduction in blood glucose level measured upto 48 hrs; type: functional, organism-based; conditions: dose 10-100 nmol/kg, DDE = dose-dependent effect
Mus musculus [34] = assay: Anti-diabesity activity in DIO C57BL/6 mouse assessed as improvement in insulin sensitivity at 25 nmol/kg, sc administered every 2 days for 10 days by insulin tolerance test; type: functional, organism-based; conditions: time 10.0 day
Mus musculus [35] = assay: Anti-diabesity activity in DIO C57BL/6 mouse assessed as reduction in body weight at 25 nmol/kg, sc administered every 2 days for 10 days; type: functional; conditions: C57BL/6, 240 h, time 10 day
[36] = AUC (0 to infinity) in Sprague-Dawley rat at 25 nmol/kg, sc by LC-MS/MS analysis; type: ADME, organism-based; parameters: time infinity, dose 25 nmol/kg, route sc; conditions: in vivo
[37] = Hepatotoxicity in db/db mouse assessed as aspartate aminotransferase level in plasma at 25 nmol/kg, sc administered every 2 days for 12 weeks; type: toxicity, organism-based; conditions: in vivo, 2016 h
[38] = Pancreatic insult activity in DIO C57BL/6 mouse assessed as amylase level in serum at 25 nmol/kg, sc administered every 2 days for 3 weeks; type: toxicity, organism-based; conditions: in vivo, 504 h, time 21 day

SMILES	Activity [1]	Activity [2]	Activity [3]	Activity [4]	Activity (Mus musculus [5])	Activity [6]	Activity (Mus musculus [7])	Activity (Mus musculus [8])	Activity (Mus musculus [9])	Activity [10]	Activity (Mus musculus [11])	Activity [12]	Activity (Mus musculus [13])	Activity (BRIN-BD11)	Activity (Mus musculus [14])	inhibition in vivo at 0.01 µmol/kg (Mus musculus [15])	Activity [16]	Activity (Mus musculus [17])	Activity (Mus musculus [18])	half-life [19]	other results
CCCC[C@H](NC(=O)[C@H](Cc1ccc(CS(=O)(=O)O)cc1)NC(=O)[C@H](CC(=O)O)NC(=O)COCCOCCNC(=O)COCCOCCNC(=O)[C@H](CCCCN)NC(=O)CNC(=O)[C@H](CCCCN)NC(=O)[C@@H](NC(=O)[C@H](CC(C)C)NC(=O)[C@H](Cc1c[nH]c2ccccc12)NC(=O)[C@H](CCC(=O)O)NC(=O)[C@@H](NC(=O)[C@H](Cc1ccccc1)NC(=O)[C@H](CCC(=O)O)NC(=O)[C@H](CCCCNC(=O)COCCOCCNC(=O)COCCOCCNC(=O)CC[C@H](NC(=O)CCCCCCCCCCCCCCCCC(=O)O)C(=O)O)NC(=O)[C@H](C)NC(=O)[C@H](C)NC(=O)[C@H](CCC(=O)O)NC(=O)[C@H](CCC(=O)O)NC(=O)[C@H](CCC(=O)O)NC(=O)[C@H](CC(C)C)NC(=O)[C@@H](NC(=O)[C@H](CCC(=O)O)NC(=O)[C@@H](NC(=O)[C@@H](NC(=O)[C@H](CC(=O)O)NC(=O)[C@H](CC(N)=O)NC(=O)[C@@H](NC(=O)[C@H](Cc1ccc(O)cc1)NC(=O)[C@@H](NC(=O)CNC(=O)[C@H](CCC(=O)O)NC(=O)C(C)(C)NC(=O)[C@@H](N)Cc1cnc[nH]1)[C@@H](C)O)[C@@H](C)O)C(C)C)[C@@H](C)O)[C@@H](C)O)[C@@H](C)CC)[C@@H](C)CC)C(=O)NCC(=O)N[C@@H](Cc1c[nH]c2ccccc12)C(=O)N[C@@H](CCCC)C(=O)N(C)[C@H](CC(=O)O)C(=O)N(C)[C@@H](Cc1ccccc1)C(N)=O	Non-Toxic	Non-Toxic	Non-Toxic	Non-Toxic	Active	Non-Toxic	Active	Active	Active	Non-Toxic	Active	Non-Toxic	Active	Dde	Active	16.2%	Non-Toxic	Active	Active	9.1 h	Activity (Mus musculus [20]): Active; Activity (Mus musculus [21]): Active; Activity (Mus musculus [22]): Active; Activity [23]: Non-Toxic; Activity (Mus musculus [24]): Active; Activity (Mus musculus [25]): Active; Activity (Mus musculus [26]): Active; Activity (Mus musculus [27]): Active; inhibition in vivo at 0.025 µmol/kg (Mus musculus [28]): 29.8%; Activity (Mus musculus [29]): Active; Activity (Mus musculus [30]): Active; Activity (Mus musculus [31]): Active; Activity [32]: Non-Toxic; Activity (Mus musculus [33]): Dde; Activity (Mus musculus [34]): Active; inhibition in vivo at 0.025 µmol/kg (Mus musculus [35]): 21.2%; AUC(0-inf) [36]: 15200 ng·h/mL; Activity [37]: Non-Toxic; Activity [38]: Non-Toxic
CCCC[C@H](NC(=O)[C@H](Cc1ccc(CS(=O)(=O)O)cc1)NC(=O)[C@H](CC(=O)O)NC(=O)COCCOCCNC(=O)COCCOCCNC(=O)[C@H](CCCNC(=N)N)NC(=O)CNC(=O)[C@H](CCCCN)NC(=O)[C@@H](NC(=O)[C@H](CC(C)C)NC(=O)[C@H](Cc1c[nH]c2ccccc12)NC(=O)[C@H](C)NC(=O)[C@@H](NC(=O)[C@H](Cc1ccccc1)NC(=O)[C@H](CCC(=O)O)NC(=O)[C@H](CCCCNC(=O)COCCOCCNC(=O)COCCOCCNC(=O)CC[C@H](NC(=O)CCCCCCCCCCCCCCCCC(=O)O)C(=O)O)NC(=O)[C@H](C)NC(=O)[C@H](C)NC(=O)[C@H](CCC(N)=O)NC(=O)CNC(=O)[C@H](CCC(=O)O)NC(=O)[C@H](CC(C)C)NC(=O)[C@H](Cc1ccc(O)cc1)NC(=O)[C@H](CO)NC(=O)[C@H](CO)NC(=O)[C@@H](NC(=O)[C@H](CC(=O)O)NC(=O)[C@H](CO)NC(=O)[C@@H](NC(=O)[C@H](Cc1ccccc1)NC(=O)[C@@H](NC(=O)CNC(=O)[C@H](CCC(=O)O)NC(=O)[C@H](C)NC(=O)[C@@H](N)Cc1cnc[nH]1)[C@@H](C)O)[C@@H](C)O)C(C)C)[C@@H](C)CC)C(C)C)C(=O)NCC(=O)N[C@@H](Cc1c[nH]c2ccccc12)C(=O)N[C@@H](CCCC)C(=O)N(C)[C@H](CC(=O)O)C(=O)N(C)[C@@H](Cc1ccccc1)C(N)=O	Non-Toxic	Non-Toxic	Non-Toxic	Non-Toxic	Active	Non-Toxic	Active	Active	Active	Non-Toxic	Active	Non-Toxic	Active	Dde	Active	14.5%	Non-Toxic	Active	Active	6.3 h	Activity (Mus musculus [20]): Active; Activity (Mus musculus [21]): Active; Activity (Mus musculus [22]): Active; Activity [23]: Non-Toxic; Activity (Mus musculus [24]): Active; Activity (Mus musculus [25]): Active; Activity (Mus musculus [26]): Active; Activity (Mus musculus [27]): Active; inhibition in vivo at 0.025 µmol/kg (Mus musculus [28]): 27.3%; Activity (Mus musculus [29]): Active; Activity (Mus musculus [30]): Active; Activity (Mus musculus [31]): Active; Activity [32]: Non-Toxic; Activity (Mus musculus [33]): Dde; Activity (Mus musculus [34]): Active; inhibition in vivo at 0.025 µmol/kg (Mus musculus [35]): 17.9%; AUC(0-inf) [36]: 5510 ng·h/mL; Activity [37]: Non-Toxic; Activity [38]: Non-Toxic

Reference: ChEMBL document CHEMBL5143608, “Peptide-based long-acting co-agonists of GLP-1 and cholecystokinin 1 receptors as novel anti-diabesity agents” (Eur J Med Chem, 2022)
